The values below come from patent US11464750B2, “Anticancer agent and use thereof” (priority 2017, dated 2022).

Assay [1] deals with TKG0377 cells. Description: Cell Death Detection ELISA, TKG0377. In kind it is cell-based, human. To be noted: 0.5 μM, 72 hours. The method, then: The induction of apoptosis by 3EZ,20Ac-ingenol treatment was examined by detecting histone-binding DNA fragmentation in the cytoplasm using a Cell Death Detection ELISA kit (Roche Applied Science).
Specifically, BALL-1 cells, TKG0210 cells, and TKG0377 cells were inserted into tubes at 5×10^4 cells/well/200 μL, and incubated for 6, 12, 24, 48, and 72 hours in the presence of 3EZ,20Ac-ingenol at a final concentration of 0.5 μM. Subsequently, the respective cells were lysed in a lysis buffer. Subsequently, the supernatant of cell debris of the respective cells was collected and transferred to an ELISA plate, and an absorbance at a wavelength of 405 nm was measured to measure the induction of apoptosis.

In assay [2] the test system is phosphorylated H2AX (γH2AX). Description: Western blotting, phosphorylated H2AX, JeKo-1 cells. Format: cell-based, human. To be noted: 0.5 μM, 12 hours after treatment. As for the experimental part:
Specifically, JeKo-1 cells were cultured for 0 (control), 12, 24 and 48 hours in the presence of 0.5 μM of 3EZ,20Ac-ingenol. In addition, Panc-1 cells were cultured for 0 (control), 12, 24, and 48 hours in the presence of 3 μM of 3EZ,20Ac-ingenol.
Subsequently, phosphorylation of H2AX in the respective cells was detected using an anti-phosphorylated-H2AX antibody (Millipore). In addition, p21 protein was detected using an anti-p21 antibody (Cell Signaling Technology). Furthermore, as a loading control, actin protein was detected using an anti-actin antibody (Sigma).
A general note: Immunoblotting shows a protein as a band on a membrane.

Assay [3] relates to p53 protein. Description: Western blotting, p53 protein, Panc-1 cells. Format: cell-based, human. To be noted: 3 μM, 12 hours until 48 hours after treatment. The method, then: Specifically, JeKo-1 cells were cultured for 0 (control), 12, 24, and 48 hours in the presence of 0.5 μM of 3EZ,20Ac-ingenol. In addition, Panc-1 cells were cultured for 0 (control), 12, 24, and 48 hours in the presence of 3 μM of 3EZ,20Ac-ingenol.
Subsequently, ATR protein, p53 protein, and phosphorylated p53 (hereinafter also referred to as “p-p53”) protein in the respective cells were respectively detected using an anti-ATR antibody (Cell Signaling Technology), an anti-p53 antibody (Santa Cruz), and an anti-p-p53 antibody (Cell Signaling Technology). Furthermore, as a loading control, actin protein was detected using an anti-actin antibody (Sigma).

For assay [4], the system named is phosphorylated Akt (Ser^473). Description: Western blotting, p-Akt (Ser473), TKG0377 cells. Format: cell-based, human. The note with it: 0.5 μM. As for the experimental part: The effect of 3EZ,20Ac-ingenol treatment on a PI3K/Akt signaling pathway was examined. Specifically, BALL-1 cells, TKG0210 cells, and TKG0377 cells were cultured for 48 hours in the presence of 3EZ,20Ac-ingenol at a final concentration of 0.5 μM, and by Western blotting using an anti-p-Akt (Ser^473) antibody (Cell Signaling Technology), phosphorylation of the 473th serine residue of an Akt protein in respective fractions of the entire cell, a nucleus, and a cytoplasm was analyzed. In addition, cells cultured in the absence of 3EZ,20Ac-ingenol were used as controls.
BALL-1 cells, TKG0210 cells, and TKG0377 cells were cultured for 24 and 48 hours in the presence of 3EZ,20Ac-ingenol at a final concentration of 0.5 μM, and abundances of p-Akt in the nuclear fraction and the cytoplasm fraction were analyzed by Western blotting. In addition, respective cells cultured in the absence of 3FZ,20Ac-ingenol were used as controls.

For assay [5], the system named is PTEN. Description: Western blotting, PTEN, BALL-1 cells. Format: cell-based, human. The note with it: 0.5 μM. The method, then:
The effect of 3EZ,20Ac-ingenol treatment on PTEN, p-PTEN, and p-Akt of BALL-1 cells was examined. First, BALL-1 cells were cultured for 3, 6, 12, 24, and 48 hours in the presence of 3EZ,20Ac-ingenol at a final concentration of 0.5 μM, and by Western blotting using an anti-PTEN antibody (Santa Cruz), an anti-p-PTEN (Ser^380/Thr^382/383) antibody (Santa Cruz), and an anti-p-Akt (Ser^473) antibody (Cell Signaling Technology), abundances of PTEN, p-PTEN, and p-Akt in the entire cell fraction were analyzed. In addition, cells cultured in the absence of 3EZ,20Ac-ingenol were used as controls.
Subsequently, siRNA against PTEN (“ON-TARGET Plus Human PTEN (5728) siRNA-SMARTpool,” GE Dharmacon) was introduced into BALL-1 cells at a final concentration of 50 nM and incubated for 48 hours. Subsequently, a cell medium was replaced with a new medium and cultured for 12, 24, and 48 hours in the presence or absence of 3EZ,20Ac-ingenol at a final concentration of 0.5 μM, and by Western blotting using an anti-PTEN antibody (Santa Cruz) and an anti-p-Akt (Ser^473) antibody (Cell Signaling Technology), abundances of PTEN protein and p-Akt were analyzed.

Assay [6] concerns p-Akt (Ser^473). Description: Western blotting, p-Akt, JeKo-1 cells. In kind it is cell-based, human. The note with it: 0.5 μM. As for the experimental part:
(§1) Specifically, first, JeKo-1 cells were cultured for 0 (control), 12, 24, and 48 hours in the presence of 0.5 μM of 3EZ,20Ac-ingenol. In addition, Panc-1 cells were cultured for 0 (control), 12, 24, and 48 hours in the presence of 3 μM of 3EZ,20Ac-ingenol.
(§2) Subsequently, by Western blotting using an anti-Akt antibody (Cell Signaling Technology) and an anti-p-Akt (Ser^473) antibody (Cell Signaling Technology), abundances of total amounts of Akt protein and p-Akt in the entire cell fractions, nuclear fractions, and cytoplasm fractions of the respective cells were analyzed. Furthermore, as a loading control, actin protein was detected using an anti-actin antibody (Sigma).

The subject of assay [7] is p-Akt (Ser^473). Description: Western blotting, p-Akt, Panc-1 cells. In kind it is cell-based, human. To be noted: 3 μM. The method, then: as §1, §2
For assay [8], the system named is Akt protein. Description: Western blotting, total amount of Akt, JeKo-1 cells. Format: cell-based, human. The note with it: 0.5 μM, entire cell fraction. As for the experimental part: as §1, §2
For assay [9], the system named is Akt protein. Description: Western blotting, total amount of Akt, Panc-1 cells. Format: cell-based, human. The note with it: 3 μM. As for the experimental part: as §1, §2
The subject of assay [10] is DT40 cells. The note with it: stop in the G2/M phase; cited from earlier work.
[11] abbreviates: entire cell fraction, 12 hours and 24 hours.
Setting [12] is: nuclear fraction and cytoplasm fraction, 12 to 24 hours.
[13] abbreviates: nuclear fraction and cytoplasm fraction, 48 hours.

Consider `CCCCC/C=C\C=C\C(=O)O[C@H]1C(C)=C[C@]23C(=O)[C@@H](C=C(COC(C)=O)[C@@H](O)[C@]12O)[C@H]1[C@@H](C[C@H]3C)C1(C)C` [3EZ,20Ac-ingenol, 3-O-(2′E,4′Z-decadienoyl)-20-O-acetylingenol], for which, in [1], the “amount of fragmented DNA (apoptosis)” value was “almost no fragmented DNA was detected”. The “phosphorylation of H2AX” value in [2] is “phosphorylation of H2AX was detected”. Moreover, the “expression level of p53 protein” value in [3] is listed as “an increase in expression level of p53 protein was recognized”. In addition, the “abundance of p-Akt” value is recorded as “no decrease in abundance of p-Akt was observed” in [4] (24 and 48 hours, cytoplasm fraction and nuclear fraction); “remained almost unchanged” in assay [4] (48 hours, cytoplasm fraction); “increased” in assay [4] (48 hours, nuclear fraction); “a decrease in abundance of p-Akt was clearly recognized” in assay [6] (cytoplasm fraction, 12 to 48 hours); “a slight decrease in abundance of p-Akt was observed” in assay [6] (entire cell fraction); “no change in an abundance of p-Akt was recognized” in assay [6] (nuclear fraction). Further, the “abundance of p-Akt” value in assay [7] (setting [11]) is “a temporary increase in abundances of both p-Akt and total amount of Akt was recognized”; in assay [7] (entire cell fraction, 48 hours), “a decrease was observed again”; in [7] (setting [12]) it was “an increase in abundance of both p-Akt and total amount of Akt was recognized”; in assay [7] (setting [13]), “a decrease was observed 48 hours after the treatment”. The “abundance of PTEN” value in assay [5] (3 to 48 hours, entire cell fraction) is listed as “an increase in abundance of PTEN”. Also, in assay [5] (cells with siRNA against PTEN introduced, 12 hours, further increased 24 and 48 hours), the “expression level of PTEN” value is reported as “an increase in expression level of PTEN was observed”. Also, the “abundance of a total amount of Akt” value in assay [8] was “almost no change was observed”. The “abundance of total amount of Akt” value in [9] (setting [11]) is “a temporary increase in abundances of both p-Akt and total amount of Akt was recognized”; in assay [9] (entire cell fraction, 48 hours) it was “a decrease was observed again”; in assay [9] (setting [12]), “an increase in abundance of both p-Akt and total amount of Akt was recognized”; in [9] (setting [13]), “a decrease was observed 48 hours after the treatment”. Also, the “cell proliferation of DT40 cells” value in assay [10] is “stops cell proliferation of DT40 cells”.
